Assay results: US8273880B2, “Pyrazole compounds with inhibitory activity against ROS kinase” (Korea Institute of Science and Technology, priority 2009, dated 2012)
“Also recorded” adds a separate entry of the source.

How the values were obtained:
Format in all cases: biochemical
LYN = target: T1, LYN (Homo sapiens, UniProt P07948); assay: HotSpot kinase screening over 45 different kinases, single dose 10 μM; settings: single dose concentration of 10 μM, 10 μM ATP
T1 construct: purchased Reaction Biology Corporation
Description: (§1) Kinase screening was performed using a “HotSpot” assay platform commercially available from Reaction Biology Corporation. For this kinase screening, reaction buffers were based on 20 mM Hepes (pH 7.5), 10 mM MgCl2, 1 mM EGTA, 0.02% Brij35, 0.02 mg/mL BSA, 0.1 mM Na3VO4, 2 mM DTT, and 1% DMSO, with supplementary factors necessary for respective kinase reactions added thereto. In each enzyme reaction, […] of each kinase was used together with a fresh reaction buffer and appropriate supplementary factors. A solution of each compound in DMSO was added in a suitable concentration to the reaction buffer. Kinase reaction started with the introduction of […] (specific activity […]) and continued for 2 hours at room temperature.
(§2) 1) Screening of Compounds Over 45 Different Kinases
(§3) Each compound was tested twice at a single dose concentration of 10 μM. […] The reaction was performed with 10 μM ATP.

MEK1 = target: T2, MEK1 (Homo sapiens, UniProt Q02750); assay: as above; settings: single dose concentration of 10 μM, 10 μM ATP
T2 construct: purchased Reaction Biology Corporation
Description: as §1, §2, §3

MST4 = target: T3, MST4 (Homo sapiens, UniProt Q9P289); assay: as above; settings: single dose concentration of 10 μM, 10 μM ATP
T3 construct: purchased Reaction Biology Corporation
Description: as §1, §2, §3

MUSK = target: T4, MUSK (Homo sapiens, UniProt O15146); assay: as above; settings: single dose concentration of 10 μM, 10 μM ATP
T4 construct: purchased Reaction Biology Corporation
Description: as §1, §2, §3

P38a/MAPK14 = target: T5, P38a/MAPK14 (Homo sapiens, UniProt Q16539); assay: as above; settings: single dose concentration of 10 μM, 10 μM ATP
T5 construct: purchased Reaction Biology Corporation
Description: as §1, §2, §3

PAK4 = target: T6, PAK4 (Homo sapiens, UniProt O96013); assay: as above; settings: single dose concentration of 10 μM, 10 μM ATP
T6 construct: purchased Reaction Biology Corporation
Description: as §1, §2, §3

PIM1 = target: T7, PIM1 (Homo sapiens, UniProt P11309); assay: as above; settings: single dose concentration of 10 μM, 10 μM ATP
T7 construct: purchased Reaction Biology Corporation
Description: as §1, §2, §3

PKCa = target: T8, PKCa (Homo sapiens, UniProt P17252); assay: as above; settings: single dose concentration of 10 μM, 10 μM ATP
T8 construct: purchased Reaction Biology Corporation
Description: as §1, §2, §3

PLK1 = target: T9, PLK1 (Homo sapiens, UniProt P53350); assay: as above; settings: single dose concentration of 10 μM, 10 μM ATP
T9 construct: purchased Reaction Biology Corporation
Description: as §1, §2, §3

RAF1 = assay: as above; settings: single dose concentration of 10 μM, 10 μM ATP
Description: as §1, §2, §3

RET = target: T10, RET (Homo sapiens, UniProt P07949); assay: as above; settings: single dose concentration of 10 μM, 10 μM ATP
T10 construct: purchased Reaction Biology Corporation
Description: as §1, §2, §3

RON/MST1R = target: T11, RON/MST1R (Homo sapiens, UniProt Q04912); assay: as above; settings: single dose concentration of 10 μM, 10 μM ATP
T11 construct: purchased Reaction Biology Corporation
Description: as §1, §2, §3

RocK1 = target: T12, RocK1 (Homo sapiens, UniProt Q13464); assay: as above; settings: single dose concentration of 10 μM, 10 μM ATP
T12 construct: purchased Reaction Biology Corporation
Description: as §1, §2, §3

Ros/Ros1 = target: T13, Ros/Ros1 (Homo sapiens, UniProt P08922); assay: as above; settings: single dose concentration of 10 μM, 10 μM ATP
T13 construct: purchased Reaction Biology Corporation
Description: as §1, §2, §3

SYK = target: T14, SYK (Homo sapiens, UniProt P43405); assay: as above; settings: single dose concentration of 10 μM, 10 μM ATP
T14 construct: purchased Reaction Biology Corporation
Description: as §1, §2, §3

TIE2/TEK = target: T15, TIE2/TEK (Homo sapiens, UniProt Q02763); assay: as above; settings: single dose concentration of 10 μM, 10 μM ATP
T15 construct: purchased Reaction Biology Corporation
Description: as §1, §2, §3

TRKA/NTRK1 = target: T16, TRKA/NTRK1 (Homo sapiens, UniProt P04629); assay: as above; settings: single dose concentration of 10 μM, 10 μM ATP
T16 construct: purchased Reaction Biology Corporation
Description: as §1, §2, §3

YES = target: T17, YES (Homo sapiens, UniProt P07947); assay: as above; settings: single dose concentration of 10 μM, 10 μM ATP
T17 construct: purchased Reaction Biology Corporation
Description: as §1, §2, §3

c-Kit = target: T18, c-Kit (Homo sapiens, UniProt P10721); assay: as above; settings: single dose concentration of 10 μM, 10 μM ATP
T18 construct: purchased Reaction Biology Corporation
Description: as §1, §2, §3

c-MET = target: T19, c-MET (Homo sapiens, UniProt P08581); assay: as above; settings: single dose concentration of 10 μM, 10 μM ATP
T19 construct: purchased Reaction Biology Corporation
Description: as §1, §2, §3

c-Src = target: T20, c-Src (Homo sapiens, UniProt P12931); assay: as above; settings: single dose concentration of 10 μM, 10 μM ATP
T20 construct: purchased Reaction Biology Corporation
Description: as §1, §2, §3

p70S6K = target: T21, p70S6K (Homo sapiens, UniProt P23443); assay: as above; settings: single dose concentration of 10 μM, 10 μM ATP
T21 construct: purchased Reaction Biology Corporation
Description: as §1, §2, §3

45 different kinases = assay: Kinase selectivity from screening over 45 different kinases
Description: as §1, §2, §3

ROS kinase = ROS kinase (Homo sapiens, UniProt P08922); assay: ROS kinase screening (HotSpot, IC50 mode); set-up: purchased Reaction Biology Corporation; settings: 10-dose IC50 mode starting from 20 μM; 10 μM ATP; read-out: Inhibitory Activity against ROS (IC50)
Description: as §1
The reaction was performed with 10 μM ATP.

[1] = compared to enzyme activity in DMSO control

T19 sequence (P08581 25-1390): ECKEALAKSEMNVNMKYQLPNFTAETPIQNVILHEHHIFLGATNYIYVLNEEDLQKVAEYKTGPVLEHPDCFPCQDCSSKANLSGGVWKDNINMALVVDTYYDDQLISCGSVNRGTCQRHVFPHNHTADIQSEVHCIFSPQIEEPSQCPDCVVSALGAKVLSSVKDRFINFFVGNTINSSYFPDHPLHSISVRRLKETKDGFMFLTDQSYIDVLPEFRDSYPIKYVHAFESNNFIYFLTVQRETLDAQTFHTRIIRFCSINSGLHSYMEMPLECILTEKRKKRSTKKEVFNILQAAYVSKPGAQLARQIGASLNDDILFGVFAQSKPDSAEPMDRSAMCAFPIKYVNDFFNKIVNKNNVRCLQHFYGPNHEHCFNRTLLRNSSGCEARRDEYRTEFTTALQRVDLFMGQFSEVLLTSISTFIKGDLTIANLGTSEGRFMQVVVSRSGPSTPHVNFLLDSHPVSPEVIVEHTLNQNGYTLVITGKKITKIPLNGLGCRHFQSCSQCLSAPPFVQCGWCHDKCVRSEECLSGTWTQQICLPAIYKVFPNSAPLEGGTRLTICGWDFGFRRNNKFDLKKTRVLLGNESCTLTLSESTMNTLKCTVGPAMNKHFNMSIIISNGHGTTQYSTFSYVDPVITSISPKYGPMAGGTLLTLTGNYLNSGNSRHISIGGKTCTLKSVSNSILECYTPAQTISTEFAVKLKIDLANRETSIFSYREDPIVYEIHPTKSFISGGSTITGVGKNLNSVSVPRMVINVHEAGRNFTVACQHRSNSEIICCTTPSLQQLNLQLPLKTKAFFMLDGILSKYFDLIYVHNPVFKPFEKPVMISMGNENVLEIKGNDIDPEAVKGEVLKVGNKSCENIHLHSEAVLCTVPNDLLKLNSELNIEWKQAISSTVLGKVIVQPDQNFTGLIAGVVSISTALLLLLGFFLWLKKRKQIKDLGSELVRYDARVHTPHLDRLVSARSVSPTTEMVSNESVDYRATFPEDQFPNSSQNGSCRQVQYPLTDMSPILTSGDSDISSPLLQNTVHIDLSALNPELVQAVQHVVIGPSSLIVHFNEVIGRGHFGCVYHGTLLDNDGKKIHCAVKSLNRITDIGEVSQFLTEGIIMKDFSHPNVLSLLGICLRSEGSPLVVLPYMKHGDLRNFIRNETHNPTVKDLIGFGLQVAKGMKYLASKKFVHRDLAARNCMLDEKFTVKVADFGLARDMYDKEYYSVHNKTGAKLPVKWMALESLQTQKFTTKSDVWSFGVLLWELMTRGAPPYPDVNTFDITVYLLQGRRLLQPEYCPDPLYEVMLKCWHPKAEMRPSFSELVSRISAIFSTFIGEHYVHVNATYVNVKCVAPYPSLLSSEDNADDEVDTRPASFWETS
T4 sequence (O15146 24-869): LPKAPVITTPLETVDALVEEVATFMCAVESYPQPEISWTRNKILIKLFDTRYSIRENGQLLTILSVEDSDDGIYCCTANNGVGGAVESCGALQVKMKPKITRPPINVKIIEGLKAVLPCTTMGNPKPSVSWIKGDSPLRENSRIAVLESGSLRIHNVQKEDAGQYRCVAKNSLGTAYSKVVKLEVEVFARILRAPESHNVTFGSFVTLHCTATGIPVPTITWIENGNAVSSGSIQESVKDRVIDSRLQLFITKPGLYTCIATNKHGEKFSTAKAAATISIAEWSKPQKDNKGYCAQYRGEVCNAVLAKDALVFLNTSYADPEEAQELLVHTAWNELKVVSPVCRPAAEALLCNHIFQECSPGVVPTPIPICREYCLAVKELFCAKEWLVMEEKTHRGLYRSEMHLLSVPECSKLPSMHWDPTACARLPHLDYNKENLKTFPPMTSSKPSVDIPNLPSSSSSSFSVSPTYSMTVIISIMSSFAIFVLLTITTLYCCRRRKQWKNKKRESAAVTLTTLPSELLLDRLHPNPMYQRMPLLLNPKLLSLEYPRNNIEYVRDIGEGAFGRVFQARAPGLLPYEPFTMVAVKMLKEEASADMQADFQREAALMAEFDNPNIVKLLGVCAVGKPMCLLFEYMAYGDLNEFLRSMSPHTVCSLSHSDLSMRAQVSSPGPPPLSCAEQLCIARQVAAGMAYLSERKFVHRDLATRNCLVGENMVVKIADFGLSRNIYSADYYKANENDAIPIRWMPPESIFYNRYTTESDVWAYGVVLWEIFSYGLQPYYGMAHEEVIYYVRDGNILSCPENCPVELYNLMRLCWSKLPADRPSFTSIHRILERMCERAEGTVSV
T13 sequence (P08922 28-2347): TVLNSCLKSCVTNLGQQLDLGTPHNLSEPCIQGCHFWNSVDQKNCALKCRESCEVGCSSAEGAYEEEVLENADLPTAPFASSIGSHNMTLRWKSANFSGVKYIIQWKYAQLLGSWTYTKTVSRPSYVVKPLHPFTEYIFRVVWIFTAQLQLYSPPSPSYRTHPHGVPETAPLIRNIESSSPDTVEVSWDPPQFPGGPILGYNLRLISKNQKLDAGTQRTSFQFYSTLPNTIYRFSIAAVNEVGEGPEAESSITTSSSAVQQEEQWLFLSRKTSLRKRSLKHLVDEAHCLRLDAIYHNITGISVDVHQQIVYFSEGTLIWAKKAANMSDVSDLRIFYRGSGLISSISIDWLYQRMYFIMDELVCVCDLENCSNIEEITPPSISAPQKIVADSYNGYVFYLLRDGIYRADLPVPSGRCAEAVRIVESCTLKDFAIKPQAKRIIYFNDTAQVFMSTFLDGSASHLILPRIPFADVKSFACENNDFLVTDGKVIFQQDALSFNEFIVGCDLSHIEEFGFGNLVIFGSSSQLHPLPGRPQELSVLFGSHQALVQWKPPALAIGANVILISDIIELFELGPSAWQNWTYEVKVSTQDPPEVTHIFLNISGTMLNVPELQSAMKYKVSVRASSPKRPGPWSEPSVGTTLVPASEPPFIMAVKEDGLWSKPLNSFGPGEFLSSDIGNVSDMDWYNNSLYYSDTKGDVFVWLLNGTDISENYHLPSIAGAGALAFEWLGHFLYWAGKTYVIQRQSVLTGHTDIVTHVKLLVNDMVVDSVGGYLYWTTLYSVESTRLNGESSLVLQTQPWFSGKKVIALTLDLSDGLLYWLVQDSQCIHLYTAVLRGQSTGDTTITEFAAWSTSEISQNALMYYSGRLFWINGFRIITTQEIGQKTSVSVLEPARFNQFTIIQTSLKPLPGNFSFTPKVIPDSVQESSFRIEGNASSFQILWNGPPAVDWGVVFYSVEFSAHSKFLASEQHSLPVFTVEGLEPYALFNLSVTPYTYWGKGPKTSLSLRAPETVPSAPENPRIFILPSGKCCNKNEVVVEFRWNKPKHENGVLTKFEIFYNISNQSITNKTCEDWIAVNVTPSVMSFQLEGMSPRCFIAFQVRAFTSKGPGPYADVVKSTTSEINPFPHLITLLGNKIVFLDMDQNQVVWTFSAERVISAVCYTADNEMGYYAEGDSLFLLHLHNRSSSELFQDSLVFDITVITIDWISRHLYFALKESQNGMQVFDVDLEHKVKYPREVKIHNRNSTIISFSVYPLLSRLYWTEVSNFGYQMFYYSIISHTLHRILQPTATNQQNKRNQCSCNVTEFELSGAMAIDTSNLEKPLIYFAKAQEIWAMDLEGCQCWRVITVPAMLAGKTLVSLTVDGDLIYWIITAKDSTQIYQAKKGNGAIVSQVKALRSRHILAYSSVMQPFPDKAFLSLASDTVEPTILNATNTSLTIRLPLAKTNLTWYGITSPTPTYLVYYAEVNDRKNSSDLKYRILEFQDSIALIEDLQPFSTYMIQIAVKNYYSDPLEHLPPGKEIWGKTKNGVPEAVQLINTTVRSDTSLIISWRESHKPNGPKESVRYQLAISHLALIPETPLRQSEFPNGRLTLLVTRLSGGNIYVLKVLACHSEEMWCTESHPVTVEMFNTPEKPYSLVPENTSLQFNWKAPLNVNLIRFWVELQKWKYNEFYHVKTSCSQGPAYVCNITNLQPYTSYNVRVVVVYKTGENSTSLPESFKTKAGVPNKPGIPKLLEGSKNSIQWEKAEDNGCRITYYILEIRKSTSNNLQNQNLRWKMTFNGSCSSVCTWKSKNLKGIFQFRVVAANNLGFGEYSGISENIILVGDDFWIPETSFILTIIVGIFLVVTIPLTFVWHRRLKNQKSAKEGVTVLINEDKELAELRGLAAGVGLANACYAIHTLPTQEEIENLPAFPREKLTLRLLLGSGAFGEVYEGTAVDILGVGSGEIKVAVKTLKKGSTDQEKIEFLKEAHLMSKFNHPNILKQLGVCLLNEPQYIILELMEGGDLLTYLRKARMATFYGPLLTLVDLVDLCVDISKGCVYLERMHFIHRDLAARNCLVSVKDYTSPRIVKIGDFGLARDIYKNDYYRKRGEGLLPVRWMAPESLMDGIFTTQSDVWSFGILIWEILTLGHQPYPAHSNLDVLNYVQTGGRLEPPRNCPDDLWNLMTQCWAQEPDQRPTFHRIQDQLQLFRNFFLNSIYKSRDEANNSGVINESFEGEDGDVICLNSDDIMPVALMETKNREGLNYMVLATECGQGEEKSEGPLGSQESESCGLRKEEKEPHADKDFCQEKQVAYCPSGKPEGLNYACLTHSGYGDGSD
T1 sequence (P07948 whole entry): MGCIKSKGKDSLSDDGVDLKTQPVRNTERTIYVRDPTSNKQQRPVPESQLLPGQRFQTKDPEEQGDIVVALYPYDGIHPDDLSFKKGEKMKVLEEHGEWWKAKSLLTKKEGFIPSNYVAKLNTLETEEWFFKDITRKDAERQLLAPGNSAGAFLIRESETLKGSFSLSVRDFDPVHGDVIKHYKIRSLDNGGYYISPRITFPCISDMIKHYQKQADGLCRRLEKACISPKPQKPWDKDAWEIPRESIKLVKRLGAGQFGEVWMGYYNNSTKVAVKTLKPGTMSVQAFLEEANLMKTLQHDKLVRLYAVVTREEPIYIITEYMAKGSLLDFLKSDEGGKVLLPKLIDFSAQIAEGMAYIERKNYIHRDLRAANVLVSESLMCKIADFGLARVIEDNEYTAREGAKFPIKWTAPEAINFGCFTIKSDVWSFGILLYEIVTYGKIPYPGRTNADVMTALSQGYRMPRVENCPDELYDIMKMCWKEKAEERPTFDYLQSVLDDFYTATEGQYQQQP
Chain of ROS kinase (P08922 28-2347): as the sequence (P08922 28-2347) above

`Cc1cc(O)cc(-c2nn(CC#N)cc2-c2cc(NC[C@H](C)O)nc(-c3cccnc3)n2)c1` [Example 10, [4-[6-(2(S)-hydroxypropylamino)-2-pyridin-3-yl-pyrimidin-4-yl]-3-(3-hydroxy-5-methylphenyl)-pyrazol-1-yl]acetonitrile] showed an inhibition at 10 µM (LYN) of -1.45%, an activity at 10 µM (LYN; [1]) of 101% and an inhibition at 10 µM (MEK1) of -6.97%. For the same compound, the activity at 10 µM (MEK1; [1]) was 107%, the inhibition at 10 µM (MST4) was -1.54% and the activity at 10 µM (MST4; [1]) was 102%. It also gave an inhibition at 10 µM (MUSK) of -0.42%, an activity at 10 µM (MUSK; [1]) of 100% and an inhibition at 10 µM (P38a/MAPK14) of 5.27%. It also gave an activity at 10 µM (P38a/MAPK14; [1]) of 94.7%, an inhibition at 10 µM (PAK4) of 1.37% and an activity at 10 µM (PAK4; [1]) of 98.6%. For the same compound, the inhibition at 10 µM (PIM1) was 5.91%, the activity at 10 µM (PIM1; [1]) was 94.1% and the inhibition at 10 µM (PKCa) was 9.23%. It also gave an activity at 10 µM (PKCa; [1]) of 90.8%, an inhibition at 10 µM (PLK1) of 5.85% and an activity at 10 µM (PLK1; [1]) of 94.2%. The “Inhibition (%)” value (RAF1) was 20.39%, the “Activity (%)” value (RAF1; [1]) was 79.61% and the inhibition at 10 µM (RET) was 6.65%. It also gave an activity at 10 µM (RET; [1]) of 93.3%, an inhibition at 10 µM (RON/MST1R) of 28.8% and an activity at 10 µM (RON/MST1R; [1]) of 71.1%. The inhibition at 10 µM (RocK1) was 11.7%, the activity at 10 µM (RocK1; [1]) was 88.3% and the inhibition at 10 µM (Ros/Ros1) was 93.9%. The activity at 10 µM (Ros/Ros1; [1]) was 6.08%, the inhibition at 10 µM (SYK) was 8.23% and the activity at 10 µM (SYK; [1]) was 91.8%. It also gave an inhibition at 10 µM (TIE2/TEK) of 8.17%, an activity at 10 µM (TIE2/TEK; [1]) of 91.8% and an inhibition at 10 µM (TRKA/NTRK1) of -0.14%. For the same compound, the activity at 10 µM (TRKA/NTRK1; [1]) was 100%, the inhibition at 10 µM (YES) was -2.59% and the activity at 10 µM (YES; [1]) was 103%. It also gave an inhibition at 10 µM (c-Kit) of 2.85%, an activity at 10 µM (c-Kit; [1]) of 97.2% and an inhibition at 10 µM (c-MET) of 5.82%. It also gave an activity at 10 µM (c-MET; [1]) of 94.2%, an inhibition at 10 µM (c-Src) of 16.2% and an activity at 10 µM (c-Src; [1]) of 83.8%. The inhibition at 10 µM (p70S6K) was 5.79%, the activity at 10 µM (p70S6K; [1]) was 94.2% and the “Notes (selectivity for ROS)” value (45 different kinases) was “no inhibitory activity against almost all of the tested kinases, except for ROS kinase; also recorded: Selective for ROS”. The IC50 (ROS kinase) was 199 nM.
